# How the values were obtained:
# [1] = Phase-solubility diagram with HP-β-CD; type: physicochemical; parameters: stability constant K1:2 with HP-β-CD: unit not given here
# [2] = Photostability under solar light, UV–vis spectra; type: physicochemical; settings: solar light 4 h; 50 μM; presence or absence of β-CD
# Method: The photostability of the drug under solar light was evaluated using UV–vis spectral measurements. Sample solutions were exposed to solar light outdoors at a sunny location on a latitude of 35.92° N and a longitude of 139.91° E for 4 h, from 12:00 to 16:00, at an average temperature of 284.55 K.
# [3] = Phase-solubility diagram with β-CD
# Method: The solutions were mechanically shaken at 298 K in a thermostatic chamber, and the supernatant was sampled and filtered after passage for appropriate periods. The concentration of the drug in the supernatant was determined using HPLC.
# The phase-solubility diagram consists of the equilibrium concentration of the guest drug as the ordinate and the total concentration of the host CD as the abscissa.[45] If a straight line and parabolic curve can be approximated on the phase-solubility diagram, then, the curves are classified as AL- and AP-types in the Higuchi and Connors catalogs, respectively.[45],[46]
# Multiple regression analysis of the measured data set to the total concentration of the host ([CD]) and its squares ([CD]^2) using eq 3 can be used to obtain the stability constants for a combination of the equimolar complex K1:1 and double-host associating complex K1:2.[45],[46] [drawing 3] 3 This is the sum of the dissociated (free) and associated (complexed) drug concentrations. Although the Benesi–Hildebrand equation with the square of the host concentration has been used for parabolic correlations, its validity remains unclear.
# This curve is classified as the AN-type on the Higuchi and Connors catalog.[45]−[48] The curve is described by eq 4′ according to the Langmuir adsorption isotherm model.[47]−[51] To process with the linear regression analysis of ordinate ([CD]/γ) referred to abscissa ([CD]), the Hanes–Woolf expression in eq 4′ may be used [drawing 4] 4 [drawing 5] 4′ where n indicates the asymptotic concentration of the drug associated with CD (saturation, maximal γ) and K is equivalent to the drug/CD complex stability constant. […] The stoichiometry of a complex of drugs with CD is difficult to determine; the prevailing opinion is that more than one guest molecule incorporates a host molecule and that hydration or ionization of the guest regulates the solubility of the complex.[46]
# Szejtili[46] stated that, in rare cases, the ascending region at lower host concentrations is followed by a plateau region, similar to that of the AN-type saturation curve. Simultaneously, it terminates at any host concentration threshold. It is named the BS-type in the Higuchi and Connors catalog,[45]−[48] and for concentrations higher than the threshold, the guest concentration decreases along a hyperbola, probably according to the solubility product KSP.[49] To analyze this type of pattern, a hypothesis that is yet to be discussed is required.[52] […] At the threshold concentration of CD, the scale of the aggregated dispersoids transcends an upper limit, and the aggregation induces subsequent sedimentation.[52] Thus, the solubility product may be considered a property of poorly soluble aggregated dispersoids containing a tolerable amount of the drug and an excess amount of CD.
# [4] = Molar absorption coefficients of 270 and 360 nm peaks (UV–vis calibrated by NMR molar ratio); type: physicochemical
# Excerpt: From NMR titration, the diketo and enol forms were expected to be 15.3 and 84.7%, respectively. Therefore, the abscissae of the regression lines were condensed to the species contents, leading to the molar absorption coefficients (i.e., absorbance gradients to the molarity) for the diketo and keto-enol forms being approximately 8.1 × 10^7 and 4.3 × 10^7 L/mol. Figure S13 confirms that the molar absorption coefficients for the diketo and keto-enol forms in the isochoric acetonitrile/water solvent were approximately 13.8 × 10^7 and 3.6 × 10^7 L/mol, respectively. The obtained parameters allowed the absorbance to be converted into AVB molarity.
# [5] = UVA1 (365 nm) photodegradation in aqueous buffer, UV–vis spectra / RP-HPLC; type: physicochemical; settings: for UVA1 photodegradation (spectral change): 50 μM, aqueous; for diketo increase to the keto-enol decrease: UVA1 365 nm
# Method: (§1) The samples were obtained after passage for appropriate periods and measured using an UV–vis spectrophotometer in the maximum range between 200 and 700 nm (arranged on demand) from long wavelengths toward short wavelengths to avoid unnecessary irradiation of the UV region. To obtain HPLC chromatograms, aliquots of the UV-irradiated solution were obtained by pipetting at 0, 1/5, 1/2, 1, 2, 3, 4, 24, 48, 72, 96, 120, 144, and 168 h for AVB and at 0, 1, 2, 3, and 18 h for CUR. To obtain those of OXB in the absence or presence of β-CD, the invariable samples were certified at 0 and 48 h. For the samples in acetonitrile aqueous solution or methanol aqueous solution at a ratio of 7:3, the time evolution of the UVA1 irradiated solution was examined under similar conditions.
# [6] = UVA1 (365 nm) photodegradation in isochoric acetonitrile/water solvent; type: physicochemical; settings: UVA1 365 nm, 25 μM
# Method: as §1
# [7] = 25 mM Pi/NaOH buffer pH 6.8, 298 K, Figure 2, in M-1 (unit assumed)
# [8] = regression with 2-order equation, pH 6.8
substance,measurement,setting,value
p-tert-butyl-p-methoxydibenzoylmethane [AVB],stability constant K1:2 with HP-β-CD,"[1]; 25 mM Pi/NaOH buffer pH 6.8, 298 K, Figure 2",40.4
same,stability constant K1:1 with HP-β-CD,[1]; [7],90.3
same,stability constant K1:1 with HP-β-CD (equimolar complex),[1]; [8],90.3 L/mol
same,stability constant K1:2 with HP-β-CD (1:2-ratio complex),[1]; [8],40.4 L^2/mol^2
same,stability under solar light compared to UVA1 irradiation,[2],no significant changes in stability
same,stability constant K1:1 with β-CD,[3]; [7],1023
same,stability constant K1:1 with β-CD,"[3]; equimolar complex, pH 6.8",1023 L/mol
same,"molar absorption coefficient, diketo form (270 nm)",[4]; isochoric acetonitrile/water,approximately 13.8 × 10^7 L/mol
same,"molar absorption coefficient, keto-enol form (360 nm)",[4]; isochoric acetonitrile/water,~3.6e+07 L/mol
same,"molar absorption coefficient, keto-enol form (360 nm)",[4]; methanol/H2O = 7:3,~4.3e+07 L/mol
same,UVA1 photodegradation (spectral change),[5]; absence of β-CD,gradually photodegraded
same,UVA1 photodegradation (spectral change),[5]; presence of β-CD,insignificantly degraded
same,diketo increase to the keto-enol decrease,[5]; 25 μM β-CD,20.1%
same,diketo increase to the keto-enol decrease,[5]; 4 mM β-CD,23.9%
same,diketo increase to the keto-enol decrease,[5]; no β-CD,19.3%
same,effect of equimolar and 4 mM β-CD on photodegradation velocity / first-order rate,[6],reduced the photodegradation velocity

# Reference: article PMC11755785 (Langmuir, 2025)
